Data published in patent US9012169B2, “Metabolic method to identify compounds having flavor or fragrance” (Givaudan S.A., priority 2004, dated 2015).

What was measured:
[1] = target: T1, human recombinant carboxyl esterase (CE) (Homo sapiens, UniProt P23141); assay: Incubation with human recombinant carboxyl esterase (CE) and standard substrate p-nitrophenylacetate, absorbance at 405 nm; type: biochemical; conditions: 0.1 mM p-nitrophenylacetate, test compound 0-1 mM, 25° C., pH 7.2
T1 construct: In order to clone the full-length gene encoding CE; made in house; host or cells: Sf9 insect cells, baculovirus (pBlueBac4.5), used as microsomes
T1 sequence (P23141 18-566 isoform P23141-3 limits assumed): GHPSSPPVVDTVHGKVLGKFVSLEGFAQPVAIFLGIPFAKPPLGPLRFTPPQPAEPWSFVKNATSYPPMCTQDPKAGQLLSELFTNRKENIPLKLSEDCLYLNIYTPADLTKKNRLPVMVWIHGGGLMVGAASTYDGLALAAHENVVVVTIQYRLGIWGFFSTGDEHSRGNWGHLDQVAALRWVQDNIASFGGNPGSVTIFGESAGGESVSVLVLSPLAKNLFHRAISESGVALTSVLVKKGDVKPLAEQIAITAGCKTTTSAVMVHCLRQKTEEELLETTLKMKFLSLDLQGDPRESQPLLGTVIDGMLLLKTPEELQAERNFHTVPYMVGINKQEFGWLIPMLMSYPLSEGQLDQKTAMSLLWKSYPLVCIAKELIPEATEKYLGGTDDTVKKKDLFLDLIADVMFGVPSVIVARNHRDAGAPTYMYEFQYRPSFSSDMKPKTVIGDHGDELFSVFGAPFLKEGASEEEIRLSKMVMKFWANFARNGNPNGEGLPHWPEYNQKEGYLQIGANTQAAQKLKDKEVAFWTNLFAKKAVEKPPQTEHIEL
Procedure: The incubation of a test compound (potential substrate or modulator of CE) and CE is performed in the presence of a standard substrate, for example p-nitrophenylacetate. The hydrolysis product of p-nitrophenylacetate is p-nitrophenol which can be detected by measuring the absorbance at 405 nm. […] The incubation mixture contains CE microsomes containing CE enzyme corresponding to 4 mU of CE in a total volume of 0.2 ml (1 U hydrolyzes 1.0 μmole of ethylbutyrate to butyrate and ethanol per min at pH 8.0, 25° C.), 0.1 mM p-nitrophenylacetate, and the test compound in 50 mM potassium phosphate buffer (pH 7.2). The test compound is employed at different concentrations, for example 0, 0.05, 0.1, 0.25, 0.5, 1 mM, to allow detection of a dose-dependent effect. Samples that contain no test compound serve as a negative control. The samples are incubated at 25° C. and the increase in absorbance at 405 nm is measured every 5 minutes for 30 minutes.

[2] = target: T1, human recombinant carboxyl esterase (CE); assay: Incubation with CE in the absence of the standard substrate, metabolites by GC and GC-MS; type: in vitro ADME
Procedure: Incubation with CE is performed in the absence of the standard substrate using 10 mU of CE in a total volume of 0.5 ml with the substrate at 0.25 mM and 50 mM potassium phosphate as the assay buffer.
GC and GC-MS analysis show the formation of an additional peak which is identified as menthol, which is a metabolite of menthyl-lactate.

hTRPM8 = hTRPM8 (Homo sapiens, UniProt Q7Z2W7); assay: Receptor screen using hTRPM8-expressing CHO-K1/FRT cells, Fura-2 intracellular calcium; conditions: for Receptor ligand character at hTRPM8: conclusion from the receptor screen after the metabolic reaction with CE; for Intracellular calcium levels in hTRPM8-expressing CHO-K1 cells: menthyl-lactate incubated with CE (menthol formed) versus control with substrate but without CE
Procedure: The stable CHO-K1/FRT cell clones that express hTRPM8 are used in a receptor screen to identify ligands of said receptor. This is performed analogous to the method described by Peier et al. (Cell (2002) 108:705-715) for the mouse TRPM8 cDNA. Glass coverslips, 24-well and 96-well tissue culture plates are used for cell plating. Cells are loaded with the calcium-sensitive fluorescent dye Fura-2 acetoxymethyl ester (Fura-2AM). As a test compound, menthol or another known ligand is diluted in a suitable buffer compatible with the CHO-K1/FRT cells.
Menthyl-lactate, a substrate of CE, is incubated with CE. Controls contain menthyl-lactate but not CE. The incubation is performed as described in Examples 7B, subject to the following modifications: after 30 min incubation time at 25° C., the samples are chilled on ice for 10 min and centrifuged. Supernatants are transferred to empty wells and diluted with 1 volume 2×HEPES (4 mM Ca^2+). The dilution is used as a test sample in a receptor screen as described in Example 8.

[3] = target: T2, rat olfactory receptor 17 (Rattus norvegicus, UniProt P23270); assay: Receptor screen using HEK293 cells expressing Galpha-15,16 and the rat olfactory receptor 17, intracellular calcium; type: cell-based; conditions: octanol incubated with ADH (octanal present) versus control without enzyme
T2 construct: expressed in transfected cells; host or cells: HEK293
T2 sequence (P23270 1-327): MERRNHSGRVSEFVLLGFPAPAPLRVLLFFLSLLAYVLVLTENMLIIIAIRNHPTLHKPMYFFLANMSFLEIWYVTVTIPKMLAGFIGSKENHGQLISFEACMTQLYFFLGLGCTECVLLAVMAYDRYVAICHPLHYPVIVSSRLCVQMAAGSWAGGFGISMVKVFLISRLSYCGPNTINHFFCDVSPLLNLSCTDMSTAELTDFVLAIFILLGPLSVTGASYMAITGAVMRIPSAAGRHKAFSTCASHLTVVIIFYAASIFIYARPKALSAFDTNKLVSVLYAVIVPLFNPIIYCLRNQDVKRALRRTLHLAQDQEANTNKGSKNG
Procedure: Octanol is incubated with alcohol dehydrogenase as described in example 10, controls without alcohol dehydrogenase are incubated accordingly. In the presence of the enzyme, the metabolite of octanol, which is octanal, is present as shown in example 10.
The rat olfactory receptor 17 together with the Galpha15,16 are expressed by co-transfection in HEK293 cells as described by Krautwurst et al. (1998), Cell 95:917-926. Transfected HEK293 cells are plated on coverslips, 24-well tissue culture plates, and microtiter plates. These coverslips and plates are incubated with Fura-2 as described in example 8. The microtiter plates are incubated as described by Krautwurst et al. (1998).
The supernatant is transferred to an empty container and diluted with 2×HEPES (4 mM Ca^2+). This dilution is used as a sample in the receptor screen as described in Example 8, using HEK293 cells that express Galpha-15,16 and the rat olfactory receptor 17.
Fluorescence recording is performed to monitor any increase in intracellular, cytoplasmic calcium levels.

human CYP2A13 [4] = target: T3, human CYP2A13 (Homo sapiens, UniProt Q16696); conditions: 60 min, 0.3 mM, pH 7.4
T3 sequence (Q16696 1-494): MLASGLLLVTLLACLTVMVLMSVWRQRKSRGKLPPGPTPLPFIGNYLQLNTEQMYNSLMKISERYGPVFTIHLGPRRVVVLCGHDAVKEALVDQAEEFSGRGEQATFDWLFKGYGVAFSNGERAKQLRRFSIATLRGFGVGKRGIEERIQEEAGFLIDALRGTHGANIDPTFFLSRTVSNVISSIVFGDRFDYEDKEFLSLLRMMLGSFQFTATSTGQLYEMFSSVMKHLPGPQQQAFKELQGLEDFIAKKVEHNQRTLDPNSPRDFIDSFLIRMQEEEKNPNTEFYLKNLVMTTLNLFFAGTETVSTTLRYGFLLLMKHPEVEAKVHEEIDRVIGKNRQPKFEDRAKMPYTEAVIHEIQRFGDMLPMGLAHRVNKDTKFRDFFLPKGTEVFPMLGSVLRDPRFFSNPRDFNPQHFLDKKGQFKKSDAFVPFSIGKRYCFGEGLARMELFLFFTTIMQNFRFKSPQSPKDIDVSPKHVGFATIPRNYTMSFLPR
Procedure: (§1) 100 pmoles human recombinant NADPH-P450 reductase contained in microsomes (BD Biosciences Gentest, USA) are incubated with 50 pmoles CYP2A13 microsomes for 15 minutes on ice. Freshly sonicated dilaurylphosphatidylcholine (DLPC, Fluka, Switzerland) is added from a stock solution (1 mg/ml in water) to give a final concentration of 0.025 mg/ml (0.5 ml final reaction volume) and the mixture is incubated on ice for 15 minutes. Potassium phosphate buffer (1 M, pH 7.4) and water are added to give a buffer concentration of 0.1M in a final volume of 0.5 ml. The test compound is prepared as a 50 mM stock solution in acetonitrile. […]
(§2) Following the 60 min incubation, the sample is chilled on ice for 10 minutes and the enzymatic reaction is stopped by extraction with 0.3 ml of the organic solvent methyl-t-butyl-ether (MTBE) that allows separating the test compound and its metabolites from the aqueous phase which contains the enzymes. 1 microliter of the MTBE fraction is analysed by GC and GC-MS to identify metabolites which are present in the enzymatic reaction, but not in the control.
(§3) For test compounds which show a decrease in umbelliferone-derived fluorescence, the incubation with the enzyme but without coumarin and analysis of metabolites is performed by GC and GC-MS as described in Example 2A. […]

[5] = target: T4, human microsomal epoxide hydrolase (EH) (Homo sapiens, UniProt P07099); assay: Incubation of styrene oxide with human microsomal epoxide hydrolase (EH), metabolite by GC-MS; type: in vitro ADME; conditions: 0.5 mM styrene oxide, 0.2 mg/ml EH, pH 9, 30 min at 37° C.
T4 construct: purchased BD Bioscience, Gentest, US
T4 sequence (P07099 1-455): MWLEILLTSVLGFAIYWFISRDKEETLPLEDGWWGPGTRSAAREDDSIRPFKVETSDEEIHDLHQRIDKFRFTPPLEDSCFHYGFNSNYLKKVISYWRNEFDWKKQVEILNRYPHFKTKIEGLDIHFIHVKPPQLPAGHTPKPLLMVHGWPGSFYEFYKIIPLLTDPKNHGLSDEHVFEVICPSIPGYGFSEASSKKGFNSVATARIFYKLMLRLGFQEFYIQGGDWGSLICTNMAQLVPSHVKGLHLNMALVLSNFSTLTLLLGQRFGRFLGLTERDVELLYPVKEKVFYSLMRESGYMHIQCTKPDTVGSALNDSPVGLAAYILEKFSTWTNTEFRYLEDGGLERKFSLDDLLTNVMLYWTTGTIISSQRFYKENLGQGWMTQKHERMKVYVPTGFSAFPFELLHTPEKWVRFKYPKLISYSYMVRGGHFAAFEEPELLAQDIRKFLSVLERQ

[6] = target: CYP2E1 and Epoxide Hydrolase (EH) (Homo sapiens, UniProt P05181)
Procedure: Styrene is incubated in a first incubation step with microsomal membranes of baculovirus-infected Sf9 insect cell membranes that contain CYP2E1 and POR. In a second incubation step, this sample is incubated with EH.
In the first step, 3 μl styrene (77 mM in acetonitrile), 425 μl potassium phosphate buffer (50 mM, pH 7.4), 16.5 μl MgCl2, 50 pmole of CYP2E1 containing cytochrome P450 reductase (purchased from BD Bioscience, Gentest, US) and water are mixed to give a total volume of 470 μl. 30 μl NADPH (50 mM in water) are added to the sample, to the control 30 μl water are added. Sample and control are incubated at 37° C. for 1 hour.
In the second step, 50 μl of 1 M Tris-Cl, pH 9 followed by 0.4 mg/ml protein (human microsomal epoxide hydrolase microsomes, 25,000 pmole styrene oxide hydrolase activity/(min×mg protein) BD Bioscience, Gentest, US) is added and incubation is continued for 30 min.
After the second step, 100 μl acetonitrile is added to sample and control and they are placed on ice. This stops the enzymatic reaction. Compounds in the samples are extracted with MTBE.
Metabolites, i.e. additional compounds present in the sample but not in the control, are identified by GC-MS.

[7] = target: T5, equine liver ADH (EC 1.1.1.1) (Equus caballus, UniProt P00327); assay: Incubation of octanol with alcohol dehydrogenase (ADH), metabolite by GC and GC-MS; type: in vitro ADME; conditions: octanol 0.1 M, 50 mU ADH, 10 mM NAD+, pH 8.5, 30 min at 25° C.
T5 construct: purchased Sigma-Aldrich, Switzerland
Procedure: Human alcohol dehydrogenase exists as a heterogeneous group of isozymes capable of oxidizing a wide variety of aliphatic and aromatic alcohols. Any isozyme of the human enzyme can be used. In this example, equine liver ADH (EC 1.1.1.1; Sigma-Aldrich, Switzerland) is used instead of the human enzyme. Octanol is incubated with ADH in a 1-ml reaction volume containing 50 mM potassium phosphate (pH 8.5) and 10 mM NAD+ (Fluka, Switzerland). Octanol is added at a concentration of 0.1 M and the metabolic reaction is initiated by addition of 50 mU of ADH and incubated for 30 min at 25° C. The tube is centrifuged to separate any debris and the supernatant extracted with MTBE for analysis by GC and GC-MS. […] The metabolite is identified by GC analysis and GC-MS as octanal.

human CYP2A13 [8] = target: T3, human CYP2A13; assay: Incubation of a test compound with human CYP2A13 and identification of metabolites by GC and GC-MS; conditions: from decrease of umbelliferone and metabolite found by GC-MS
Procedure: as §1, §2, §3

Sequence of hTRPM8 (Q7Z2W7 whole entry): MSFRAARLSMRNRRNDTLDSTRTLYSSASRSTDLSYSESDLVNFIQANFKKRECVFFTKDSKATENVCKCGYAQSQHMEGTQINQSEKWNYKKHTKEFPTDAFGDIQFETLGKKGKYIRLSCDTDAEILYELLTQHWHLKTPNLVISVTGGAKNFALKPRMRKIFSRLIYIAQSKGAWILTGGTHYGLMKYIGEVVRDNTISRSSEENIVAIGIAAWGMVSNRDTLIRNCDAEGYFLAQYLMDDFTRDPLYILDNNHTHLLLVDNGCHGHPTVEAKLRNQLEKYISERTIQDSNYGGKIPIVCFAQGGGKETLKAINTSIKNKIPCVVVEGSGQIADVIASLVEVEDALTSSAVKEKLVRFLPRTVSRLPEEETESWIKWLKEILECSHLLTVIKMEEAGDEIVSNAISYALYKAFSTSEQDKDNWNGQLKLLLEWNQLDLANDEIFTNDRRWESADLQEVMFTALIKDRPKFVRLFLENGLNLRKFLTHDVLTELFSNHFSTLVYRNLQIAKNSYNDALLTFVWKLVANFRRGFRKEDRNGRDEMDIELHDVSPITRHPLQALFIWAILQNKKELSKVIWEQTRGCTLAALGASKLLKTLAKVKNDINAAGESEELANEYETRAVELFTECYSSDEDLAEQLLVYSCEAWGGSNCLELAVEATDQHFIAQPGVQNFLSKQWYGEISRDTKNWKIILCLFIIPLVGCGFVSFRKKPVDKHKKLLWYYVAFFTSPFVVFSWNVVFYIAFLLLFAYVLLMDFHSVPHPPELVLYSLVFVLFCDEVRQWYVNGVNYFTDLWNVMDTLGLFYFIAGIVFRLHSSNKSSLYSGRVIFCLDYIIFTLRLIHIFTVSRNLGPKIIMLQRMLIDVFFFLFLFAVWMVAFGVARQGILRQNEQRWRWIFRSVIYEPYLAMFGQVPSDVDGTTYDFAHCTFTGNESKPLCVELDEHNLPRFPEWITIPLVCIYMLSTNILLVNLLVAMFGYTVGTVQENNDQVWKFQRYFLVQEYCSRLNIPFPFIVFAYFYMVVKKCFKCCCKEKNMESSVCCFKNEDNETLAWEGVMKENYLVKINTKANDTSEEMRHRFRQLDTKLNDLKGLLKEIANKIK
T5 sequence (P00327 2-375 limits assumed): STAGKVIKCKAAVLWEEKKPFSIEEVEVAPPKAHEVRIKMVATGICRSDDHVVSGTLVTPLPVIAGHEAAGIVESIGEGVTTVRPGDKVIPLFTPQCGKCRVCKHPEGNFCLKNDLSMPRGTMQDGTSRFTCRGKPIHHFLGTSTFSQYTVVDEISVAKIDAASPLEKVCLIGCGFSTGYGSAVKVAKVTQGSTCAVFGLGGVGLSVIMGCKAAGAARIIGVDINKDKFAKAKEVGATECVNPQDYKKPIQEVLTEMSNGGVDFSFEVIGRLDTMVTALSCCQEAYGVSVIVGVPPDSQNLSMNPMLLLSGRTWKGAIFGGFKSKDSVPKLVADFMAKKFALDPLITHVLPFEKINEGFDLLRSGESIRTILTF
Sequence of CYP2E1 and Epoxide Hydrolase (EH) (P05181 whole entry): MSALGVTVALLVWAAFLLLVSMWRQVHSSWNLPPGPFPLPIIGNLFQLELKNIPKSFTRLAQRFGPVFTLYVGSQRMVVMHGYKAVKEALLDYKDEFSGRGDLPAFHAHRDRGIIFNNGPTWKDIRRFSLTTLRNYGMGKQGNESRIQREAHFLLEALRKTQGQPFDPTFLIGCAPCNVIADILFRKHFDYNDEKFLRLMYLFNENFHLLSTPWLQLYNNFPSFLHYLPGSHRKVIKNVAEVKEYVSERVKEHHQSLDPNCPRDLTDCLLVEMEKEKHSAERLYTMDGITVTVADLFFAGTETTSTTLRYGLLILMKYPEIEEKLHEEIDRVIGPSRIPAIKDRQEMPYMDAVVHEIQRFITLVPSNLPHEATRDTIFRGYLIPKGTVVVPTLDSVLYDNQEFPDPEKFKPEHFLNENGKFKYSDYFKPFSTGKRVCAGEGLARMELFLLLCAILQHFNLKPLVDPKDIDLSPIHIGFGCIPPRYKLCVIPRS

CC1CCC(C(C)C)C(OC(=O)C(C)O)C1 (centres unmarked) [menthyl-lactate] was tested, and the “Formation of the enzymatic reaction product of p-nitrophenylacetate compared to negative control” value [1] was “concentration-dependent decrease”, the “Metabolite identified by GC and GC-MS (additional peak)” value ([2]; 10 mU CE, substrate 0.25 mM, 30 min at 25° C., no standard substrate) was “menthol” and the “Identification as substrate or modulator of human CE” value ([2]; from decrease of standard product and metabolite found) was “substrate of human CE”. The “Receptor ligand character at hTRPM8” value (hTRPM8) was “not the main receptor ligand” and the “Intracellular calcium levels in hTRPM8-expressing CHO-K1 cells” value (hTRPM8) was “no comparable increase”.

With CCCCCCCC=O [octanal] the “Activation of the rat olfactory receptor 17 (increase in intracellular calcium levels)” value [3] was “agonist”.

In the case of COCC(=O)c1ccccc1 [2-methoxyacetophenone], the “Metabolite identified by GC and GC-MS (additional peak present in the sample, not in the control)” value (human CYP2A13 [4]) is reported as 2-hydroxyacetophenone.

c1ccc(C2CO2)cc1 (centres unmarked) [styrene oxide] was tested, and the “Metabolite found by GC-MS in the sample but not in the control” value [5] was “diol”.

For CC1CCC(C(C)C)C(O)C1 (centres unmarked) [menthol], the “Receptor ligand character at hTRPM8” value (hTRPM8) was “preferred hTRPM8 agonist” and the “Intracellular calcium levels in hTRPM8-expressing CHO-K1 cells” value (hTRPM8) was “increase of intracellular calcium levels”.

With C=Cc1ccccc1 [styrene] the “Identified metabolites by GC-MS (present in the sample, not in the control)” value [6] was “styrene epoxide and the corresponding diol”.

For CCCCCCCCO [octanol], the “Metabolite identified by GC analysis and GC-MS” value [7] was “octanal” and the “Activation of the rat olfactory receptor 17 (increase in intracellular calcium levels)” value [3] was “not able to activate the receptor”.

With CN(C)c1ccccc1 [N,N-dimethylaniline] the “Identification as substrate or modulator of CYP2A13” value (human CYP2A13 [8]) was “substrate of CYP2A13”.
